Experimental data from PubChem BioAssay (NCI).
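Grown in 96-well plates, cells were treated for 48 hours with each compound at five concentrations. Insufficient inhibition: endpoint recorded as highest concentration tested. GI50: concentration for 50% inhibition of growth. Definition used: TGI = concentration required for complete inhibition of growth.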

Experiments:
Assay in all cases: NCI tumour cell line growth inhibition, 48 h
HS 578T breast = test system: HS 578T breast
SW-620 colon = test system: SW-620 colon
SF-295 CNS = test system: SF-295 CNS
786-0 renal = test system: 786-0 renal
HOP-92 NSCLC = test system: HOP-92 NSCLC
MOLT-4 leukemia = test system: MOLT-4 leukemia
IGROV1 ovarian = test system: IGROV1 ovarian
HCC-2998 colon = test system: HCC-2998 colon
CCRF-CEM leukemia = test system: CCRF-CEM leukemia
SF-268 CNS = test system: SF-268 CNS
UACC-62 melanoma = test system: UACC-62 melanoma
HCT-15 colon = test system: HCT-15 colon
NCI-H460 lung = test system: NCI-H460 lung
SK-OV-3 ovarian = test system: SK-OV-3 ovarian
MDA-MB-435 = test system: MDA-MB-435
EKVX NSCLC = test system: EKVX NSCLC
RXF 393 renal = test system: RXF 393 renal
MALME-3M melanoma = test system: MALME-3M melanoma
SK-MEL-28 melanoma = test system: SK-MEL-28 melanoma
SN12C renal = test system: SN12C renal
SF-539 CNS = test system: SF-539 CNS
SR leukemia = test system: SR leukemia
T-47D breast = test system: T-47D breast
NCI/ADR-RES ovarian = test system: NCI/ADR-RES ovarian
HOP-62 NSCLC = test system: HOP-62 NSCLC
DU-145 prostate = test system: DU-145 prostate
A549 NSCLC = test system: A549 NSCLC
HL-60(TB) leukemia = test system: HL-60(TB) leukemia
SNB-19 CNS = test system: SNB-19 CNS
NCI-H226 lung = test system: NCI-H226 lung
BT-549 breast = test system: BT-549 breast
OVCAR-5 ovarian = test system: OVCAR-5 ovarian
HT29 colon = test system: HT29 colon
ACHN renal = test system: ACHN renal
UO-31 renal = test system: UO-31 renal
SK-MEL-2 melanoma = test system: SK-MEL-2 melanoma
OVCAR-3 ovarian = test system: OVCAR-3 ovarian
PC-3 prostate = test system: PC-3 prostate
SK-MEL-5 melanoma = test system: SK-MEL-5 melanoma
MDA-MB-231 breast = test system: MDA-MB-231 breast
NCI-H23 lung = test system: NCI-H23 lung
TK-10 renal = test system: TK-10 renal
HCT-116 colon = test system: HCT-116 colon
M14 melanoma = test system: M14 melanoma
LOX IMVI melanoma = test system: LOX IMVI melanoma
SNB-75 CNS = test system: SNB-75 CNS
OVCAR-8 ovarian = test system: OVCAR-8 ovarian
OVCAR-4 ovarian = test system: OVCAR-4 ovarian
MCF7 breast = test system: MCF7 breast
UACC-257 melanoma = test system: UACC-257 melanoma
KM12 colon = test system: KM12 colon
NCI-H522 lung = test system: NCI-H522 lung
U251 CNS = test system: U251 CNS
CAKI-1 renal = test system: CAKI-1 renal
A498 renal = test system: A498 renal
COLO 205 colon = test system: COLO 205 colon
RPMI-8226 leukemia = test system: RPMI-8226 leukemia

O=C1C(c2ccccc2)=C(N2CCc3ccccc32)OC1(Cl)Cl
GI50 (HS 578T breast): 2.99 µM
TGI (HS 578T breast): > 100 µM
GI50 (SW-620 colon): 1.57 µM
TGI (SW-620 colon): 4.21 µM
GI50 (SF-295 CNS): 14.1 µM
TGI (SF-295 CNS): 32.4 µM
GI50 (786-0 renal): 1.82 µM
TGI (786-0 renal): 4.21 µM
GI50 (HOP-92 NSCLC): 1.81 µM
TGI (HOP-92 NSCLC): 5.21 µM
GI50 (MOLT-4 leukemia): 1.86 µM
TGI (MOLT-4 leukemia): 5.13 µM
GI50 (IGROV1 ovarian): 4.44 µM
TGI (IGROV1 ovarian): 29 µM
GI50 (HCC-2998 colon): 2.91 µM
TGI (HCC-2998 colon): 8.88 µM
GI50 (CCRF-CEM leukemia): 1.47 µM
TGI (CCRF-CEM leukemia): 5.56 µM
GI50 (SF-268 CNS): 3.92 µM
TGI (SF-268 CNS): 29.4 µM
GI50 (UACC-62 melanoma): 2.73 µM
TGI (UACC-62 melanoma): 10.8 µM
GI50 (HCT-15 colon): 1.74 µM
TGI (HCT-15 colon): 4.56 µM
GI50 (NCI-H460 lung): 3.96 µM
TGI (NCI-H460 lung): 20.2 µM
GI50 (SK-OV-3 ovarian): 13.4 µM
TGI (SK-OV-3 ovarian): 30.9 µM
GI50 (MDA-MB-435): 3.26 µM
TGI (MDA-MB-435): 11.4 µM
GI50 (EKVX NSCLC): 2.7 µM
TGI (EKVX NSCLC): 8.94 µM
GI50 (RXF 393 renal): 1.44 µM
TGI (RXF 393 renal): 2.86 µM
GI50 (MALME-3M melanoma): 1.89 µM
TGI (MALME-3M melanoma): 4.38 µM
GI50 (SK-MEL-28 melanoma): 2.27 µM
TGI (SK-MEL-28 melanoma): 4.99 µM
GI50 (SN12C renal): 2.7 µM
TGI (SN12C renal): 8.58 µM
GI50 (SF-539 CNS): 2.19 µM
TGI (SF-539 CNS): 5.17 µM
GI50 (SR leukemia): 1.67 µM
TGI (SR leukemia): 5.92 µM
GI50 (T-47D breast): 2.19 µM
TGI (T-47D breast): 9.86 µM
GI50 (NCI/ADR-RES ovarian): 3.21 µM
TGI (NCI/ADR-RES ovarian): > 100 µM
GI50 (HOP-62 NSCLC): 12.2 µM
TGI (HOP-62 NSCLC): 35.8 µM
GI50 (DU-145 prostate): 1.97 µM
TGI (DU-145 prostate): 3.9 µM
GI50 (A549 NSCLC): 4.71 µM
TGI (A549 NSCLC): 32.7 µM
GI50 (HL-60(TB) leukemia): 2.21 µM
TGI (HL-60(TB) leukemia): 5.62 µM
GI50 (SNB-19 CNS): 5.27 µM
TGI (SNB-19 CNS): 22.9 µM
GI50 (NCI-H226 lung): 1.8 µM
TGI (NCI-H226 lung): 4.27 µM
GI50 (BT-549 breast): 2.15 µM
TGI (BT-549 breast): 6.26 µM
GI50 (OVCAR-5 ovarian): 3.57 µM
TGI (OVCAR-5 ovarian): 10.4 µM
GI50 (HT29 colon): 2.25 µM
TGI (HT29 colon): 5.37 µM
GI50 (ACHN renal): 2.27 µM
TGI (ACHN renal): 7.14 µM
GI50 (UO-31 renal): 1.44 µM
TGI (UO-31 renal): 3.07 µM
GI50 (SK-MEL-2 melanoma): 3.57 µM
TGI (SK-MEL-2 melanoma): 18.6 µM
GI50 (OVCAR-3 ovarian): 1.91 µM
TGI (OVCAR-3 ovarian): 3.89 µM
GI50 (PC-3 prostate): 4.03 µM
TGI (PC-3 prostate): 54.6 µM
GI50 (SK-MEL-5 melanoma): 4.35 µM
TGI (SK-MEL-5 melanoma): 16.9 µM
GI50 (MDA-MB-231 breast): 2.89 µM
TGI (MDA-MB-231 breast): 9.09 µM
GI50 (NCI-H23 lung): 1.96 µM
TGI (NCI-H23 lung): 4.67 µM
GI50 (TK-10 renal): 2 µM
TGI (TK-10 renal): 4.91 µM
GI50 (HCT-116 colon): 1.58 µM
TGI (HCT-116 colon): 8.04 µM
GI50 (M14 melanoma): 1.77 µM
TGI (M14 melanoma): 3.73 µM
GI50 (LOX IMVI melanoma): 1.65 µM
TGI (LOX IMVI melanoma): 3.63 µM
GI50 (SNB-75 CNS): 2.52 µM
TGI (SNB-75 CNS): 17.2 µM
GI50 (OVCAR-8 ovarian): 3.58 µM
TGI (OVCAR-8 ovarian): > 100 µM
GI50 (OVCAR-4 ovarian): 3.38 µM
TGI (OVCAR-4 ovarian): 13.6 µM
GI50 (MCF7 breast): 2.29 µM
TGI (MCF7 breast): 9.59 µM
GI50 (UACC-257 melanoma): 2.53 µM
TGI (UACC-257 melanoma): 8.28 µM
GI50 (KM12 colon): 5.13 µM
TGI (KM12 colon): 18.8 µM
GI50 (NCI-H522 lung): 1.7 µM
TGI (NCI-H522 lung): 4.17 µM
GI50 (U251 CNS): 7.34 µM
TGI (U251 CNS): 21.6 µM
GI50 (CAKI-1 renal): 1.47 µM
TGI (CAKI-1 renal): 3.47 µM
GI50 (A498 renal): 3.94 µM
TGI (A498 renal): 14.6 µM
GI50 (COLO 205 colon): 1.85 µM
TGI (COLO 205 colon): 4.36 µM
GI50 (RPMI-8226 leukemia): 2.36 µM
TGI (RPMI-8226 leukemia): 6.09 µM
